# Data reported in PubChem BioAssay (NCI).
#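 In this assay, cells in 96-well plates receive the compound at five concentrations for 48 hours. Endpoints are linearly interpolated between the surrounding concentrations. GI50: concentration for 50% inhibition of growth. TGI denotes the concentration required for complete inhibition of growth.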
# What was measured:
# Assay in all cases: NCI tumour cell line growth inhibition, 48 h
# [1] = test system: CCRF-CEM leukemia
# [2] = test system: COLO 205 colon
# [3] = test system: HCC-2998 colon
# [4] = test system: HL-60(TB) leukemia
# [5] = test system: MOLT-4 leukemia
# [6] = test system: RPMI-8226 leukemia
# [7] = test system: SK-OV-3 ovarian
# [8] = test system: SNB-19 CNS
# [9] = test system: TK-10 renal
# [10] = test system: UACC-62 melanoma
Structure (SMILES),GI50 [1] [µM],TGI [1] [µM],GI50 [2] [µM],TGI [2] [µM],GI50 [3] [µM],TGI [3] [µM],GI50 [4] [µM],TGI [4] [µM],GI50 [5] [µM],TGI [5] [µM],GI50 [6] [µM],TGI [6] [µM],GI50 [7] [µM],TGI [7] [µM],GI50 [8] [µM],TGI [8] [µM],GI50 [9] [µM],TGI [9] [µM],GI50 [10] [µM],TGI [10] [µM]
CC(=O)OC1CCC2(C)C(=CCC3C4CC(CN5CC5)C(=O)C4(C)CCC32)C1 (stereo not given),2.79,11.4,3.71,12,14,30.4,4.12,16.8,3.1,8.3,1,6.28,15.6,29.6,14.1,29.5,1.89,3.82,11.7,24.6
CC(C)=NO.CC(C)=NO.CC(C)=NO.CC(C)=NO.[Ti],> 100,> 100,> 100,> 100,> 100,> 100,> 100,> 100,> 100,> 100,> 100,> 100,> 100,> 100,> 100,> 100,> 100,> 100,> 100,> 100
CCOC(=O)C1C(=O)C(=O)N2CCc3c([nH]c4ccccc34)C12 (stereo not given),–,> 100,–,> 100,–,> 100,–,> 100,–,> 100,–,> 100,–,> 100,–,> 100,–,> 100,–,> 100
CN1C/C(=C\c2ccco2)c2nc(N)nc(-c3ccco3)c2C1,–,> 100,–,> 100,–,> 100,–,> 100,–,> 100,–,> 100,–,> 100,–,> 100,–,> 100,–,> 100
CC1=C2[C@@H](c3ccccc3)C3C=CC2(C=C3C(F)(F)F)N(C(=O)NC2CCCCC2)C1=O (stereo not given in full),–,> 100,–,> 100,–,> 100,–,39.2,–,> 100,–,–,–,> 100,–,> 100,–,> 100,–,> 100
NC1=NN(c2ccccc2)C(=O)C1/C(=N\NC(=O)c1cc2ccccc2cc1O)C(=O)Nc1ccc(Cl)cc1 (stereo not given),–,24.4,–,49.7,–,> 100,–,14.7,–,40.5,–,96.1,–,> 100,–,> 100,–,> 100,–,66.2
CCn1c(SC)nnc1-c1cc2c([nH]c3ccccc32)c(-c2cccc(O)c2)n1,1.57,> 100,9.49,27.5,4.94,62.3,0.929,7.86,2.05,> 100,1.58,10.2,2.44,6.3,4.16,47,2.68,13.1,1.27,8.71
O=NNc1nc(-c2ccccn2)nc2ccccc12,–,15.4,–,> 100,–,41,–,> 100,–,> 100,–,–,–,> 100,–,> 100,–,> 100,–,65
OCCn1c(-c2ccncc2)c(-c2ccc(F)cc2)c2ncccc21,> 25,> 25,> 25,> 25,> 25,> 25,> 25,> 25,> 25,> 25,> 25,> 25,> 25,> 25,> 25,> 25,> 25,> 25,> 25,> 25
Cc1cc(C2(c3cc(C)c(O)c4ncccc34)OC(=O)c3ccccc32)c2cccnc2c1O,–,> 100,0.405,28.5,–,> 100,–,–,–,> 100,–,> 100,–,21.9,0.0365,–,–,–,0.0209,14.6
O=C(NCc1cccnc1)c1ccc([N+](=O)[O-])o1,14.5,> 32.5,0.659,1.28,1.83,6.05,8.44,25,> 20,> 32.5,4.72,> 32.5,4.13,14.2,2.89,8.26,3.33,10.4,1.06,4.42
Cc1cc2c(=O)cc(-c3ccncc3)oc2c(C(=O)O)c1C,–,> 100,–,> 100,–,> 100,–,> 100,–,> 100,–,> 100,–,> 100,–,> 100,–,> 100,–,> 100
N#Cc1c(N/N=C/c2c(Cl)cccc2Cl)nc(N)nc1N1CCCC1,3.52,16.1,5.29,> 100,1.34,21,3.4,7.04,2.88,18.3,2.56,8.21,5.12,> 100,7.14,> 100,5.9,> 100,1.47,> 100
Cc1cc2c(SCc3ccccc3Cl)nc(N)nc2nc1C,–,> 100,–,> 100,–,> 100,–,> 100,–,–,–,> 100,–,> 100,–,> 100,–,> 100,–,> 100
Nc1nc(N)c(-c2ccccc2)c(C(=O)Nc2nccs2)n1,–,> 100,–,> 100,–,> 100,–,> 100,–,> 100,–,–,–,> 100,–,> 100,–,> 100,–,> 100
Oc1ccc(CCNc2nc3ccccc3c3[nH]c4ccccc4c23)cc1,–,–,–,–,1.56,3.02,2.4,5.41,0.472,> 100,–,–,13.7,27,1.83,5.3,1.75,3.3,1.66,3.04
O=C1NC2(CCCCC2)C2=C1CCCCC2,–,> 100,–,> 100,–,–,–,> 100,–,> 100,–,–,–,> 100,–,> 100,–,> 100,–,> 100
CN(C)c1ccc(/C=C2\Cc3ccccc3C2=O)cc1Br,–,> 100,–,> 100,–,> 100,–,–,–,93.5,–,84.3,–,> 100,–,> 100,–,> 100,–,> 100
O=[N+]([O-])C1(CO)COC(CCc2ccccc2)OC1 (stereo not given),–,> 100,–,–,–,> 100,–,> 100,–,> 100,–,–,–,> 100,–,–,–,> 100,–,> 100

Structure (SMILES),GI50 [1] [µM],TGI [1] [µM],GI50 [2] [µM],TGI [2] [µM],GI50 [3] [µM],TGI [3] [µM],GI50 [4] [µM],TGI [4] [µM],GI50 [5] [µM],TGI [5] [µM],GI50 [6] [µM],TGI [6] [µM],GI50 [7] [µM],TGI [7] [µM],GI50 [8] [µM],TGI [8] [µM],GI50 [9] [µM],TGI [9] [µM],GI50 [10] [µM],TGI [10] [µM]
Clc1ccc(N=CNc2ccc(-c3nc4ccccc4[nH]3)cc2)cc1,–,–,3.99,> 100,–,–,0.631,> 100,> 100,> 100,7.57,> 100,> 100,> 100,> 100,> 100,7.52,> 100,0.386,> 100
CC(C)C12CCC3(CCC4C(C)(C(=O)O)CCCC4(C)C3C1)C(CN)C2 (stereo not given),–,19.4,–,33.2,–,36.2,–,–,–,–,–,42,–,> 100,–,> 100,–,> 100,–,> 100
CCNc1nc(-c2ccc(Cl)c(OC)c2)c(-c2ccnc(NCCNS(=O)(=O)c3ccc(Cl)cc3)n2)s1,2.83,> 100,2.32,6.61,4.97,> 100,2.87,7.16,–,–,2.93,8.39,3.66,55.1,4.59,> 100,4.09,41.8,2.11,5.49
CCCCCCCCCCCCCCCC(=O)NCC(OCC)OCC,–,> 100,–,> 100,–,> 100,–,> 100,–,–,–,–,–,> 100,–,> 100,–,> 100,–,> 100
Cn1nc(-c2ccccc2)c(C(=O)/C=C/c2ccccc2)c(N2CCCC2)c1=O,–,40.6,–,30,–,–,–,22.7,–,22.3,–,29.3,–,85.9,–,–,–,49.3,–,41
Cc1nc(-c2cccnc2)sc1C(=O)/C=C/c1ccc(Cl)cc1Cl,–,> 100,–,> 100,–,> 100,–,> 100,–,> 100,–,> 100,–,> 100,–,–,–,> 100,–,> 100
COc1ccc(C[C@H](N)C(=O)N[C@@H]2[C@@H](CO)OC(n3cnc4c(N(C)C)ncnc43)[C@@H]2O)cc1 (stereo not given in full),–,–,0.218,0.756,0.651,1.31,0.454,1.7,0.275,1.77,0.292,2.04,–,1.5,0.339,1.71,–,1.38,0.404,1.06
CC1CC2C(=O)N(c3ccccc3)C(=O)C2c2[nH]c3ccccc3c21 (stereo not given),–,> 100,–,> 100,–,> 100,–,> 100,–,> 100,–,> 100,–,36.7,–,–,–,> 100,–,> 100
ClCc1ccc(Cn2cnc3nc(Cl)nc(Cl)c32)cc1,1.79,6.19,5.66,> 20.5,1.62,3.18,–,–,1.68,5.26,1.68,28.3,2.36,5.7,3.01,–,0.43,0.932,0.974,2.54
Cc1ccc(S(=O)(=O)NCc2cccc([N+](=O)[O-])c2)cc1,–,> 100,–,> 100,–,–,–,90.3,–,> 100,–,> 100,–,> 100,–,> 100,–,> 100,–,> 100
CC1=CC(=O)N2[C@H](OC[C@@H]2C(C)C)O1,–,> 100,–,> 100,–,–,–,> 100,–,> 100,–,> 100,–,> 100,–,> 100,–,> 100,–,> 100
CCNC(=O)O/N=C1/C=C2CC[C@@H]3C(CC[C@@]4(C)C3CC[C@@H]4OC(=O)NCC)[C@@]2(C)CC1 (stereo not given in full),–,–,–,7.87,–,15.2,–,–,–,5.44,–,7.02,–,7.8,–,8.21,–,8.8,–,7.92
C=CCCC1(CCP(=O)(c2ccccc2)c2ccccc2)OCCO1,–,> 100,–,> 100,–,> 100,–,> 100,–,> 100,–,> 100,–,–,–,> 100,–,> 100,–,> 100
COc1cccc(OC)c1/C=N\N1C(=O)c2ccccc2C1=O,–,> 100,–,–,–,91.9,–,79.8,–,> 100,–,> 100,–,–,–,> 100,–,> 100,–,> 100
COc1cccc2c(Nc3ccc(C(=O)NCCN4CCNCC4)cc3)cc(-c3ccccc3)nc12,30.1,91.7,19.7,56.1,49.2,> 100,–,–,30.6,> 100,18,44.3,> 100,> 100,53.1,> 100,57,> 100,65.6,> 100
O=C(/C=C/N1CCN(c2cccc(Cl)c2)CC1)c1ccc(Cl)cc1,22.6,66.7,36.2,> 100,24.9,50.5,–,–,33.5,> 100,18.3,50.7,50.9,> 100,64.9,> 100,30.8,> 100,27.3,83.5
COC(=O)N/N=C(\c1nc2ccc(Cl)cc2[nH]c1=O)C(O)c1ccc([N+](=O)[O-])cc1 (stereo not given),–,> 100,–,> 100,–,> 100,–,> 100,–,> 100,–,> 100,–,> 100,–,> 100,–,–,–,> 100
COC(=O)CCSC(=O)Nc1ccccc1Cl,–,> 100,–,> 100,–,> 100,–,> 100,–,> 100,–,> 100,–,–,–,> 100,–,> 100,–,> 100
